According to patent US11345659B2, “Pipecolic esters for inhibition of the proteasome” (THE BOARD OF REGENTS OF THE UNIVERSY OF TEXAS SYSTEM, priority 2018, dated 2022):

Experiments:
Assay type in all cases: biochemical
26 S proteasome = target: T1, 26 S proteasome (Homo sapiens, UniProt P25787+P25789); assay: 26 S proteasome challenged with mixture of three substrates (surrogate proteinase assay); details: mixture of ChT-L, T-L and Casp-L substrates, 33.3 μM each; read-out: IC50, 26 S proteasome with substrates for all three peptidases
T1 construct: purified from erythrocytes; purchased Enzo Life Sciences, Inc. (Farmingdale, N.Y.); host or cells: human erythrocytes
Experimental: Human housekeeping 20 S and 26 S and complexes purified from erythrocytes were purchased from Enzo Life Sciences, Inc. (Farmingdale, N.Y.). The 1 mg/ml stock 20 S proteasome was diluted to 0.2 mg/ml working solution in 50 mM Tris/HCl, pH 8 containing 20% glycerol (dilution buffer). For the 26 S proteasome stock, the dilution buffer was supplemented with 2 mM ATP, 1 mM MgCl2, and 1 mM DTT (dithiothreitol). The ChT-L peptidase activity was measured as arbitrary intensity units of fluorescence emitted by 7-amino-4-methylcoumarin (AMC) released from the canonical model peptide substrate succinyl-LeuLeuValTyr-methylcoumarin (SucLLVY-MCA; Bachem Bioscience Inc., Philadelphia, Pa.), used at concentration of 100 μM. Free AMC (Sigma-Aldrich, St. Louis, Mo.) was used as the standard. The Rpt5 C-terminal peptide was synthesized (standard solid-phase peptide chemistry) and purified to at least 98% purity by GenScript (Piscataway, N.J.). The Rpt5 peptide and the peptide substrate were dissolved in dimethylsulfoxide (DMSO) and such stock solutions were stored at −20° C. The total concentration of DMSO in final reaction mixtures never exceeded 3% (vol/vol).
The reaction was carried out in 96-well plates, in 100 μL of reaction mixture, for 1 hour at 37° C. In the case of 20 S proteasome, the reaction mixture consisted of 45 mM Tris/HCl, pH 8, 100 mM KCl with premixed 10 μM Rpt5 peptide and 100 μM Suc-LLVY-MCA, to which 200 ng (nearly […]) of proteasome and desired concentration of tested compounds in 1 μL of DMSO were added. […] The reaction rates were calculated from a linear segment of kinetic curves constructed from measurements in 1-minutes intervals (Fluoroskan Ascent plate reader; Thermo Fisher Scientific Inc., Waltham, Mass.). Reaction rates were calculated using a linear fit executed by Slope Analyzer and Enzyme Kinetics applications launched within Origin Pro 2017 (OriginLab). […]

[1] = target: T2, latent core 20 S proteasome (Homo sapiens, UniProt P25787+P25789); assay: T-L peptidase activity of latent 20 S core
T2 construct: purified from erythrocytes; purchased Enzo Life Sciences, Inc. (Farmingdale, N.Y.); host or cells: human erythrocytes

20 S proteasome = target: T3, 20 S proteasome (Homo sapiens, UniProt P25787+P25789); assay: T-L peptidase activity of tRpt5-activated 20 S core; details: core activated with tRpt5
T3 construct: purified from erythrocytes; purchased Enzo Life Sciences, Inc. (Farmingdale, N.Y.); host or cells: human erythrocytes

SMILES: COc1cc(CCCOC(=O)[C@@H]2CCCCN2C(=O)OCc2ccccc2)cc(OC)c1OC [Compound 3, 1-benzyl 2-(3-(3,4,5-trimethoxyphenyl)propyl) (S)-piperidine-1,2-dicarboxylate]
- IC50 (26 S proteasome): 1.2 µM
- IC50 [1]: > 50 µM
- remaining activity at 1 µM ([1]; 1 μM compound, n=3, read-out: T-L activity, % of the control): 77%
- remaining activity at 50 µM ([1]; 50 μM compound, n=4, read-out: T-L activity, % of the control): 64%
- effect on T-L peptidase (20 S proteasome): not affected
